SMILES strings stand for the structures. Several values for one entry are separate records, joined by “and”; a condition that tells them apart may be missing. Equal values may be shown once.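 Cells were grown in 96-well plates and exposed to each compound for 48 hours at five concentrations; endpoints were interpolated linearly between bracketing concentrations, or set to the highest concentration if not reached. At the GI50, growth is halved. TGI: concentration producing complete growth inhibition.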 Where only a bound is given, the exact number is not on record here.

Some test systems named below: SR leukemia; OVCAR-8 ovarian; SW-620 colon; NCI/ADR-RES ovarian; A498 renal; RXF 393 renal; SF-295 CNS; U251 CNS; 786-0 renal; UO-31 renal.
Holding throughout (test): NCI anticancer screen, dose series, 48 h

As for `CC(=O)N[C@@H](Cc1ccc(OP(=O)(O)O)cc1)C(=O)N[C@H]1CCC(=O)N2CCC[C@@H](C(=O)NCc3cccc4ccccc34)N2C1=O`, the GI50 with SR leukemia, with OVCAR-8 ovarian, in the assay with SW-620 colon, with NCI/ADR-RES ovarian, in the assay on A498 renal and in the assay with RXF 393 renal was > 25 µM throughout. Moreover, the GI50 with SF-295 CNS, in the assay on U251 CNS, with 786-0 renal and with UO-31 renal was > 25 µM in each case. The TGI in the assay with SR leukemia, in the assay with OVCAR-8 ovarian, in the assay with SW-620 colon, in the assay on NCI/ADR-RES ovarian, with A498 renal and in the assay with RXF 393 renal was > 25 µM in each case. For the same molecule, the TGI in the assay on SF-295 CNS, in the assay on U251 CNS, in the assay with 786-0 renal and in the assay on UO-31 renal was > 25 µM each time.

Consider `COc1ncnn2ccc(-c3cnc4nc(C)n(Cc5nnc(C(C)F)o5)c4c3)c12` (stereo unspecified), for which the GI50 in the assay on SR leukemia is 0.156 µM; in the assay with OVCAR-8 ovarian, 0.245 µM; in the assay with SW-620 colon, 0.0511 µM; in the assay on NCI/ADR-RES ovarian, 0.409 µM; with A498 renal it was 0.163 µM; with RXF 393 renal it was 0.247 µM. In addition, the GI50 in the assay with SF-295 CNS is 0.326 µM; in the assay with U251 CNS it was 0.249 µM; with 786-0 renal, 0.273 µM. In addition, the TGI is 16 µM in the assay with SR leukemia; > 100 µM in the assay with OVCAR-8 ovarian; > 100 µM in the assay on SW-620 colon; > 29.2 µM in the assay with NCI/ADR-RES ovarian; 0.62 µM in the assay with A498 renal; 0.665 µM in the assay on RXF 393 renal. Further, the TGI was 8.04 µM with SF-295 CNS, > 100 µM in the assay on U251 CNS and > 100 µM in the assay on 786-0 renal.

For `COc1cccc(Nc2ncnn3ccc(CN4CC[C@@H](N)[C@H](O)C4)c23)c1`, the GI50 was 5.19 µM and > 4.99 µM in the assay with SR leukemia; 2.73 µM and 1.66 µM with OVCAR-8 ovarian; 17.7 µM and > 4.35 µM in the assay on SW-620 colon; 4.32 µM and 2.93 µM in the assay on NCI/ADR-RES ovarian; 1.12 µM and 0.861 µM with A498 renal; 0.601 µM and 0.405 µM in the assay with RXF 393 renal. Further, the GI50 in the assay with SF-295 CNS is 12.2 µM and > 5.6 µM; with U251 CNS it was 14.4 µM and > 5.46 µM; in the assay on 786-0 renal, 1.08 µM and 1.18 µM; in the assay with UO-31 renal, 0.145 µM and 0.132 µM. The TGI in the assay with SR leukemia is 40.7 µM and > 10 µM; in the assay on OVCAR-8 ovarian, 40.3 µM and > 10 µM; with SW-620 colon, 44.5 µM and > 10 µM; with NCI/ADR-RES ovarian it was 39.7 µM and > 10 µM; in the assay with A498 renal it was 4.72 µM and 3.75 µM; in the assay on RXF 393 renal, 5.11 µM and 2.41 µM. Further, the TGI in the assay with SF-295 CNS is 45.5 µM and > 10 µM; in the assay on U251 CNS, 49.3 µM and > 10 µM; in the assay with 786-0 renal, 20.6 µM and > 10 µM; with UO-31 renal, 5.02 µM and 4.12 µM.

As for `COC(=O)Nc1nc2ccc(C(=O)C3CC3)cc2[nH]1`, the GI50 with SR leukemia was 0.455 µM; in the assay with OVCAR-8 ovarian it was 0.668 µM; with SW-620 colon it was 0.297 µM; with NCI/ADR-RES ovarian, 0.329 µM; in the assay with A498 renal, 0.421 µM; with RXF 393 renal it was 0.345 µM. Besides, the GI50 with SF-295 CNS was 0.248 µM; with U251 CNS it was 0.426 µM; with 786-0 renal, 0.581 µM; in the assay on UO-31 renal, 3.21 µM. In addition, the TGI in the assay with SR leukemia is > 100 µM; in the assay with OVCAR-8 ovarian, > 100 µM; with SW-620 colon, > 100 µM; in the assay with NCI/ADR-RES ovarian it was 9.82 µM; in the assay with U251 CNS it was > 100 µM; with 786-0 renal, 30.5 µM. Moreover, in the assay with UO-31 renal, the TGI was > 63.1 µM.

As for `COc1ccc2c(c1)OC(N)=C(C#N)C2c1ccc(F)c(F)c1` (stereo unspecified), the GI50 in the assay with SR leukemia is 0.325 µM; in the assay on OVCAR-8 ovarian, 0.602 µM; with SW-620 colon, 0.398 µM; in the assay with NCI/ADR-RES ovarian, 0.351 µM; in the assay on A498 renal, 0.231 µM; in the assay with RXF 393 renal it was 0.365 µM. Also, the GI50 was 0.393 µM in the assay with SF-295 CNS, 0.425 µM in the assay on U251 CNS, 0.595 µM in the assay with 786-0 renal and 0.648 µM in the assay with UO-31 renal. The TGI was > 52.2 µM in the assay with SR leukemia; > 44.3 µM in the assay on OVCAR-8 ovarian; > 100 µM in the assay on SW-620 colon; 10.7 µM in the assay with NCI/ADR-RES ovarian; 5.96 µM in the assay on A498 renal; 5.57 µM with RXF 393 renal. Also, the TGI was > 52.4 µM in the assay with SF-295 CNS, > 45.5 µM in the assay with U251 CNS, > 96.6 µM in the assay on 786-0 renal and > 100 µM in the assay on UO-31 renal.

`Clc1ccc(Nc2ncnc3ccccc23)cc1`: the GI50 with SR leukemia was 23 µM; with OVCAR-8 ovarian, 59.2 µM; in the assay with SW-620 colon, > 100 µM; in the assay on NCI/ADR-RES ovarian, 53.7 µM; in the assay on A498 renal, 17.6 µM; in the assay with RXF 393 renal it was 47.7 µM. Further, the GI50 is 37.9 µM in the assay with SF-295 CNS, 72.5 µM in the assay on U251 CNS, 64.7 µM with 786-0 renal and 61 µM in the assay on UO-31 renal. For the same molecule, the TGI is 60.9 µM with SR leukemia; > 100 µM with OVCAR-8 ovarian; > 100 µM in the assay with SW-620 colon; > 100 µM in the assay on NCI/ADR-RES ovarian; 85.8 µM in the assay with A498 renal; > 100 µM in the assay on RXF 393 renal. Further, the TGI in the assay with SF-295 CNS, in the assay with U251 CNS, with 786-0 renal and in the assay on UO-31 renal was > 100 µM each time.

Consider `N#CC1(C#N)C2C=CC(C3CC=CC32)C1(C#N)C#N` (stereo unspecified), for which the GI50 in the assay on SR leukemia is 7.6 µM; in the assay with SW-620 colon it was 2.64 µM; in the assay on 786-0 renal it was 2.19 µM; in the assay with UO-31 renal, 1.07 µM. For the same molecule, the TGI is 7.12 µM and 17.6 µM with SR leukemia; 5.03 µM and 22.6 µM with SW-620 colon; 33.4 µM with NCI/ADR-RES ovarian; 16.9 µM in the assay on A498 renal; 8.29 µM and 13.4 µM in the assay with RXF 393 renal; > 50 µM with SF-295 CNS. Also, the TGI in the assay on U251 CNS is 17.6 µM; in the assay on 786-0 renal it was 3.36 µM and 7.76 µM; in the assay on UO-31 renal, 3.67 µM and 1.85 µM.

For the molecule `COc1c(O)cc2c(c1CC=C(C)C)OC(=O)c1c(cc(O)c(CC=C(C)C)c1O)O2`, the GI50 was 3.95 µM in the assay on SR leukemia; 4.47 µM in the assay with OVCAR-8 ovarian; 3.42 µM with SW-620 colon; 4.03 µM in the assay with NCI/ADR-RES ovarian; 4.02 µM with RXF 393 renal; 4.32 µM in the assay with SF-295 CNS. The values for the GI50 with U251 CNS, in the assay with 786-0 renal and with UO-31 renal were 4.23 µM, 4.59 µM and 4.22 µM, respectively. The TGI with SR leukemia came out at 10.5 µM; in the assay with OVCAR-8 ovarian, 8.71 µM; in the assay on SW-620 colon, 7.05 µM; in the assay with NCI/ADR-RES ovarian, 8.69 µM; with RXF 393 renal it was 7.75 µM; with SF-295 CNS it was 8.13 µM. Also, the results for the TGI with U251 CNS, with 786-0 renal and in the assay with UO-31 renal were 7.75 µM, 8.47 µM and 7.79 µM, respectively.
